Laboratory results as given in patent publication US10081737B2, “Method for producing curing agent of coating and its application on coating” (SHANGHAI YAO HE BIOCHEMICAL TECHNOLOGY CO., LTD., priority 2016, dated 2018).

What was measured:
Format in all cases: physicochemical
[1] = MEK resistance tests, 24 h, gloss loss of coating films; conditions: coating film containing the named curing agent
Experimental: (§1) To verify properties of the product of the invention, APLUS101, APLUS102, HAA and TGIC are individually mixed with the polyester powder and additives. These curing agents are added in amounts of 2-8 wt % of the polyester powder coatings.
(§2) The coatings are tested in the form of films and the tests are carried out in the same conditions.

[2] = Neutral salt-spray tests, 300 h, on coating films; conditions: corrosion of the coating film; cell text wraps over r6-r8 (Slight corrosion / No corrosion)
Experimental: as §1, §2

[3] = Flow and leveling of the powder coatings; conditions: polyester powder coating containing the named curing agent
Experimental: as §1, §2

[4] = Gloss of the polyester powder coating films; conditions: polyester powder coating film containing the named curing agent (compositions of Table 1)
Experimental: as §1, §2

[5] = QUV-A tests, 500 h, gloss retention of coating films; conditions: coating film containing the named curing agent
Experimental: as §1, §2

[6] = Heat resistance of coating films, 220° C., 15 min; conditions: color difference compared with the color at 200° C., 10 min; less color differences indicate better properties
Experimental: as §1, §2

MEK resistance tests, 24 h, gloss loss (%) [1] [%] | Flow and leveling (cm) [3] [cm] | Gloss of the films [4] | QUV-A tests, 500 h, gloss retention (%) [5] [%] | Heat resistance, 220° C., 15 min [6] | Structure (SMILES) | Neutral salt-spray tests, 300 h [2]
8.16 | 3.1 | 84.5 | 72.7 | 1.15 | O=C(CCCCC(=O)N(CCO)CCO)N(CCO)CCO [HAA, N,N,N′,N′-Tetrakis (2-hydroxyethyl)adipamide] | Slight
10.25 | 3.8 | 87.6 | 75.8 | 0.59 | O=c1n(CC2CO2)c(=O)n(CC2CO2)c(=O)n1CC1CO1 (stereo not drawn) [TGIC, 1,3,5-Triglycidyl isocyanurate] | Slight
